Molecules are shown by their SMILES. Starred links: 1 amine or outer side, 2 acyl side, 3 side chain; linkers in the order of their positions; H or OH if unused. Positions of bridges follow the written chain, without caps; N, C: chain ends. Residues, ends and D or L forms follow the SMILES beside them. Phenylene(1,4-NHCOCH2)2 = O=C(C[*:1])Nc1ccc(NC(=O)C[*:2])cc1

The values that follow come from patent US12398178B2, “Collections of peptides, peptide agents, and methods of use thereof” (Parabilis Medicines, Inc., priority 2018, dated 2025).

The series in a line: Measurement of LogD (CHI logD by HPLC). The class given is physicochemical. The settings on record: CHI log D, 50 mM ammonium acetate pH 7.4 / acetonitrile gradient, C-18 column, 25° C. The procedure:
Measurement of LogD: LogD values were measured on a Agilent 1260 HPLC with UV detector (254, 220 nm), using a Gemini NX C-18 50×3 mm column (Phenomenex) with a 6-minute 0-100% mobile phase gradient of A) 50 mM ammonium acetate pH 7.4 and B) Acetonitrile at 25° C. with a flow rate of 1 mL/min and injection volume of 3-5 uL.
As for `CC(C)C[C@@H]1NC(=O)[C@H](C)NC(=O)[C@H](C)NC(=O)[C@H](Cc2c[nH]c3ccccc23)NC(=O)[C@H](CCC(=O)O)NC(=O)[C@@H](NC(=O)[C@H](CCCNC(=N)N)NC(=O)[C@H](Cc2c[nH]cn2)NC(=O)[C@@H](NC(=O)[C@H](C)NC(=O)[C@@H]2CCCN2C(=O)[C@H](CC(=O)O)NC(=O)[C@H](C)N)[C@@H](C)O)CSCC(=O)Nc2ccc(cc2)NC(=O)CSC[C@@H](C(=O)N[C@@H](CCC(=O)O)C(=O)N[C@@H](CC(C)C)C(=O)N[C@H](C(N)=O)C(C)C)NC(=O)[C@H](Cc2c[nH]cn2)NC1=O` [Compound 1], the chromatographic logD (usually lipophilicity estimated from chromatographic retention) was found to be 0.57.

`CC[C@H](C)[C@@H]1NC(=O)[C@H](CC(C)C)NC(=O)[C@H](C)NC(=O)[C@H](C)NC(=O)[C@H](Cc2c[nH]cn2)NC(=O)[C@H](CCC(=O)O)NC(=O)[C@@H](NC(=O)[C@H](C)NC(=O)[C@H](Cc2c[nH]c3ccccc23)NC(=O)[C@H](CC(C)C)NC(=O)[C@H](C)NC(=O)[C@@H]2CCCN2C(=O)[C@H](CC(=O)O)NC(=O)[C@H](C)N)CSCC(=O)Nc2ccc(cc2)NC(=O)CSC[C@@H](C(=O)N[C@@H](CCC(=O)O)C(=O)N[C@H](C(=O)N[C@@H](CCC(N)=O)C(N)=O)[C@@H](C)O)NC1=O` [Compound 2] (H-ADPALWACEHAALICETQ-NH2; linker 8-15 via Phenylene(1,4-NHCOCH2)2; N-terminus and C-terminus assumed): the chromatographic logD is 0.62.

Compound `CC[C@H](C)[C@@H]1NC(=O)[C@@H](NC(=O)[C@H](CCC(=O)O)NC(=O)[C@H](CC(=O)O)NC(=O)[C@H](CCC(=O)O)NC(=O)[C@H](C)NC(=O)[C@@H]2CCCN2C(=O)[C@H](CC(=O)O)NC(=O)[C@H](C)N)CSCC(=O)Nc2ccc(cc2)NC(=O)CSC[C@@H](C(=O)N[C@@H](CCCNC(=N)N)C(=O)N[C@@H](Cc2c[nH]c3ccccc23)C(=O)N[C@@H](Cc2c[nH]c3ccccc23)C(N)=O)NC(=O)[C@H](CCSC)NC(=O)[C@H](Cc2c[nH]cn2)NC(=O)[C@H](C)NC(=O)[C@H](C)NC(=O)[C@H](CC(C)C)NC1=O` [Compound 8] (H-ADPAEDECILAAHMCRWW-NH2; linker 8-15 via Phenylene(1,4-NHCOCH2)2; N-terminus and C-terminus assumed) displayed a chromatographic logD of 0.92.

For the compound `CC[C@H](C)[C@@H]1NC(=O)[C@@H](NC(=O)[C@H](CC(=O)O)NC(=O)[C@H](CCC(=O)O)NC(=O)[C@H](CC(=O)O)NC(=O)[C@H](C)NC(=O)[C@@H]2CCCN2C(=O)[C@H](CC(=O)O)NC(=O)[C@H](C)N)CSCC(=O)Nc2ccc(cc2)NC(=O)CSC[C@@H](C(=O)N[C@@H](CCC(N)=O)C(=O)N[C@@H](Cc2c[nH]c3ccccc23)C(=O)N[C@@H](CC(=O)O)C(N)=O)NC(=O)[C@H]([C@@H](C)CC)NC(=O)[C@H](Cc2c[nH]cn2)NC(=O)[C@H](C)NC(=O)[C@H](C)NC(=O)[C@H](CC(C)C)NC1=O` [Compound 9] (H-ADPADEDCILAAHICQWD-NH2; linker 8-15 via Phenylene(1,4-NHCOCH2)2; N-terminus and C-terminus assumed), the chromatographic logD came out at 0.29.

With `CC[C@H](C)[C@@H]1NC(=O)[C@H](CC(C)C)NC(=O)[C@H](C)NC(=O)[C@H](C)NC(=O)[C@H](Cc2c[nH]cn2)NC(=O)[C@H](CCC(=O)O)NC(=O)[C@@H](NC(=O)[C@H](Cc2c[nH]cn2)NC(=O)[C@H](Cc2c[nH]c3ccccc23)NC(=O)[C@H](CCC(N)=O)NC(=O)[C@H](C)NC(=O)[C@@H]2CCCN2C(=O)[C@H](CC(=O)O)NC(=O)[C@H](C)N)CSCC(=O)Nc2ccc(cc2)NC(=O)CSC[C@@H](C(=O)N[C@@H](CCC(=O)O)C(=O)N[C@@H](CC(C)C)C(=O)N[C@@H](CC(=O)O)C(N)=O)NC1=O` [Compound 10] (H-ADPAQWHCEHAALICELD-NH2; linker 8-15 via Phenylene(1,4-NHCOCH2)2; N-terminus and C-terminus assumed), the chromatographic logD came to 0.39.
